Results reported in US9745339B2 (GRAFFINITY PHARMACEUTICALS GMBH, priority 2012, dated 2017).

Legend:
[1] = tested on: Bevacizumab; test: Microtiter plate chromatography of resins: binding and elution of Bevacizumab; conditions: fraction of bound Bevacizumab divided by fraction of bound HCP; truncated for values beyond 10
Experimental: (§1) Resins were assessed in packed mode by microtiter plate chromatography. For each column, approximately 30 μl of resin were transferred to a 384-well filter plate and sealed with appropriate top fits. Columns with rProtein A SEPHAROSE 4 FF and MABSORBENT A2P HF were included as controls.
(§2) Either 3.3 cv of whole IgGs dissolved at 0.5 mg ml^−1 in PBS or undiluted host cell proteins (HCP) were injected onto columns.
(§3) Unbound protein was washed from columns with 5 cv of PBS prior to elution with 5 cv of glycine buffer at pH 2.5. […] During injection of samples, speed was reduced to 10 g and centrifugation time increased to 5-10 min. Effluent fractions were collected in 384-well plates and concentrations of protein were analyzed by Bradford assay. Protein masses mi, mft and me (see below) were calculated as the product of fraction volume and measured protein concentration.
(§4) The fraction of bound protein was calculated as the difference between the total mass of protein injected mi and the mass of protein detected in the flowthrough mft, divided by the total mass of protein injected.
(§5) The yield of protein was calculated as the mass of protein eluted me, divided by the mass of protein injected mi.
(§6) The selectivity of resins was calculated as the fraction of bound Bevacizumab antibody BAb, divided by the fraction of bound host cell proteins BHCP.
(§7) The fraction of bound protein and the yield of protein were calculated for each resin based on data for whole IgG-antibodies. In the case of host cell proteins, only the fraction of bound protein is given. Selectivity of resins was calculated from data for Bevacizumab whole IgG and host cell proteins. Due to limited experimental precision, selectivity was truncated for values beyond 10.

[2] = biological target: T1, Bevacizumab (Homo sapiens, UniProt P01857); test: as above; conditions: for Bevacizumab Bound: fraction of injected protein bound, 0.5 mg/ml IgG in PBS pH 7.3, ligand immobilized on SEPHAROSE 4 FF; for Bevacizumab Yield: mass eluted (glycine pH 2.5) / mass injected
T1 construct: 0.5 mg/ml IgG in PBS pH 7.3; ligand immobilized on SEPHAR; Bevacizumab Yield; other: mass eluted (glycine pH 2.5) / mass injected; kd (dissociation constant, Langmuir isotherm); other: Bevacizumab 0.05-5 mg/ml in PBS pH 7.3, 25° C., at least 3 h; qm (maximum capacity); other: mg Bevacizumab per ml of resin; Langmuir isotherm; t0; fused on or other part: Humanized anti-VEGF-A VH domain joined N-terminally to the IGHG1 constant region (engineered, no UniProt entry)
Experimental: as §1, §2, §3, §4, §5, §6, §7

[3] = tested on: poly-IgG from human serum (h-poly-IgG); test: Microtiter plate chromatography of resins: binding and elution of human poly-IgG; conditions: fraction of injected protein bound; 0.5 mg/ml IgG in PBS pH 7.3
Experimental: as §1, §2, §3, §4, §5, §7

[4] = tested on: Palivizumab; test: Microtiter plate chromatography of resins: binding and elution of Palivizumab; conditions: fraction of injected protein bound; 0.5 mg/ml IgG in PBS pH 7.3
Experimental: as §1, §2, §3, §4, §5, §7

[5] = tested on: Cetuximab; test: Microtiter plate chromatography of resins: binding and elution of Cetuximab; conditions: fraction of injected protein bound; 0.5 mg/ml IgG in PBS pH 7.3
Experimental: as §1, §2, §3, §4, §5, §7

[6] = tested on: host cell proteins (HCP); test: Microtiter plate chromatography of resins: binding of host cell proteins; parameters: species or system CHO cell culture; conditions: fraction of injected undiluted host cell proteins bound
Experimental: Flowthrough from protein A chromatography (referred to as host cell proteins) was derived from the supernatant of antibody-producing CHO cell culture in serum-free medium. Coomassie brilliant blue dye reagent for Bradford assay was purchased from Thermo Scientific (Bonn/Germany).
as §1, §2, §3, §4, §7

[7] = tested on: Tocilizumab; test: Microtiter plate chromatography of resins: binding and elution of Tocilizumab; conditions: fraction of injected protein bound; 0.5 mg/ml IgG in PBS pH 7.3
Experimental: as §1, §2, §3, §4, §5, §7

| Compound | Selectivity [1] | Bevacizumab Bound [2] | Bevacizumab Yield [2] | h-poly-IgG Bound [3] | Palivizumab Bound [4] | Cetuximab Bound [5] | Tocilizumab Bound [7] | HCP Bound [6] |
| --- | --- | --- | --- | --- | --- | --- | --- | --- |
| Cc1csc(NC(=O)c2ccc3c(c2)ncn3CCCN)n1 [Ligand L15, 1-(3-Amino-1-propyl)benzimidazole-5-carboxylic acid N-(4-methylthiazol-2-yl) amide] | 2.6 | 100% | 91% | 100% | 100% | 100% | 100% | 39% |
| NCCCn1cnc2cc(C(=O)Nc3nccs3)ccc21 [Ligand L16, 1-(3-Amino-1-propyl)benzimidazole-5-carboxylic acid N-(thiazol-2-yl) amide] | 2.7 | 100% | 96% | 88% | 87% | 100% | 100% | 37% |
| Cc1cnc(NC(=O)c2ccc3c(c2)ncn3CCCN)s1 [Ligand L17, 1-(3-Amino-1-propyl)benzimidazole-5-carboxylic acid N-(5-methylthiazol-2-yl) amide] | 2.9 | 100% | 100% | 89% | 88% | 100% | 100% | 34% |
| NCCCNc1ccc(C(=O)Nc2nnc(-c3ccco3)s2)cc1[N+](=O)[O-] [Ligand L18, 4-[(3-Amino-1-propyl)amino]-3-nitrobenzoic acid N-[5-(2-furyl)-1,3,4-thiadiazol-2-yl]amide] | 3.4 | 100% | 102% | 100% | 100% | 100% | 100% | 29% |
| NCCCOc1ccc(C(=O)Nc2nnc(-c3ccco3)s2)cc1 [Ligand L20, 4-[(1-Amino-3-propyl)oxy]benzoic acid N-[5-(2-furyl)-1,3,4-thiadiazol-2-yl] amide] | 2.9 | 100% | 100% | 100% | 100% | 100% | 100% | 35% |
| NCCCn1cnc2cc(C(=O)Nc3nnc(-c4ccncc4)s3)ccc21 [Ligand L21, 1-(3-Amino-1-propyl)benzimidazole-5-carboxylic acid N-[5-(4-pyridyl)-1,3,4-thiadiazol-2-yl]amide] | 10.0 | 100% | 100% | 82% | 85% | 100% | 98% | 2% |
| NCCCn1cnc2cc(C(=O)Nc3nc(-c4ccccc4)ns3)ccc21 [Ligand L22, 1-(3-Amino-1-propyl)benzimidazole-5-carboxylic acid N-(3-phenyl-1,2,4-thiadiazol-5-yl) amide] | 3.3 | 100% | 104% | 100% | 100% | 100% | 100% | 30% |
| NCCCn1c(=O)c(=O)[nH]c2cc(C(=O)Nc3nnc(-c4ccco4)s3)ccc21 [Ligand L28, 1-(3-Amino-1-propyl)-2,3-dioxo-1,2,3,4-tetrahydroquinoxaline-6-carboxylic acid N-[5-(2-furyl)-1,3,4-thiadiazol-2-yl]amide] | 8.3 | 100% | 95% | 63% | 58% | 89% | 98% | 12% |

Further lines, with some results ahead:

| Selectivity [1] | Bevacizumab Bound [2] | Bevacizumab Yield [2] | h-poly-IgG Bound [3] | Palivizumab Bound [4] | Cetuximab Bound [5] | Tocilizumab Bound [7] | Compound | HCP Bound [6] |
| --- | --- | --- | --- | --- | --- | --- | --- | --- |
| 2.3 | 100% | 103% | 91% | 91% | 100% | 100% | NCCCn1cnc2cc(C(=O)Nc3nc4c(s3)CCC4)ccc21 [Ligand L32, 1-(3-Amino-1-propyl)benzimidazole-5-carboxylic acid N-(5,6-dihydro-(4H)-cyclopentathiazol-2-yl) amide] | 44% |
| 2.9 | 100% | 105% | 100% | 100% | 100% | 100% | NCCCn1cnc2cc(C(=O)Nc3nnc(-c4ccccc4)s3)ccc21 [Ligand L33, 1-(3-Amino-1-propyl)benzimidazole-5-carboxylic acid N-(2-phenyl-1,3,4-thiadiazol-5-yl) amide] | 34% |
| 10.0 | 100% | 104% | 78% | 78% | 100% | 85% | Cc1ccc(NC(=O)c2ccc3c(c2)ncn3CCCN)nn1 [Ligand L34, 1-(3-Amino-1-propyl)benzimidazole-5-carboxylic acid N-(6-methylpyridazin-3-yl) amide] | 10% |
| 3.4 | 100% | 104% | 100% | 100% | 100% | 100% | NCCCn1cnc2cc(C(=O)Nc3nnc(C4CC4)s3)ccc21 [Ligand L35, 1-(3-Amino-1-propyl)benzimidazole-5-carboxylic acid N-(2-cyclopropyl-1,3,4-thiadiazol-5-yl) amide] | 29% |
| 4.0 | 100% | 87% | 100% | 100% | 100% | 100% | NCCOCCOc1ccc(C(=O)Nc2nnc(-c3ccco3)s2)cc1 [Ligand L37, 4-(5-Amino-3-oxa-1-pentyloxy)benzoic acid N-[5-(2-furyl)-1,3,4-thiadiazol-2-yl] amide] | 25% |
| 2.9 | 100% | 106% | 99% | 95% | 100% | 99% | NCCCOc1ccc(C(=O)Nc2nc(-c3ccccn3)cs2)cc1 [Ligand L38, 4-[(1-Amino-3-propyl)oxy]benzoic acid N-[4-(2-pyridyl)thiazol-2-yl] amide] | 35% |
